Measured values: patent US6303596A, “Use of taurolidine for treatment of leukemias” (priority 2000, dated 2001)

Key:
Type in all cases: cell-based, human
[1] = tested on: MM6 cells; experiment: cell morphology / size (microscopy, flow cytometry FSC and SSC), MM6
Protocol: FIG. 12A, FIG. 12B, FIG. 12C, and FIG. 12D are flow cytometric analyses depicting changes in cell morphology following taurolidine treatment. MM6 and PBMC were treated for three hours with taurolidine, and then treated and untreated control cells were processed for flow cytometry. Monocytes in PBMC samples were identified by staining with FITC-conjugated anti-CD14, and lymphocytes by FITC-conjugated anti-CD3 and PE-conjugated anti-CD19. FIG. 12A represents untreated MM6 cells; FIG. 12B represents MM6 cells treated with 50 μg/ml taurolidine; FIG. 12C represents untreated PBMC; and FIG. 12D represents PBMC treated with 75 μg/ml taurolidine. M=monocytes; L=lymphocytes.
A Becton-Dickinson FACSCalibur instrument was used for flow cytometric analysis of cells. Assessment of cell diameter (forward scatter; FCS) and granularity (side scatter; SSC).was carried out on unfixed cells. Discrimination between lymphocytes and monocytes was made possible by their characteristic differences in FSC and SSC, and confirmed by staining monocytes with FITC-labeled anti-CD14 antibodies and lymphocytes with a combination of FITC-conjugated anti-CD3 and PE-conjugated anti-CD19. After incubation with taurolidine (with or without concomitant LPS treatment), cells were rinsed twice in phosphate-buffered saline containing 0.1% bovine serum albumin (PBSA) and 1×10^6 cells were resuspended in 0.1 ml PBSA. […]

[2] = tested on: REH cells; experiment: trypan blue exclusion, REH; conditions: 25 μg/ml taurolidine, versus MM6, K562, Jurkat
Protocol: FIGS. 8A and 8B depict cell viability and growth rates for REH cell line following taurolidine treatment, in terms of % trypan blue negative cells and % cell number, respectively. Cells were treated with various concentrations of taurolidine for 4 hours in AIM-V+0.01% BCS. After aliquots were collected for LDH assay, the remainder of the culture was rinsed in HBSS and resuspended in RPMI+10% BCS without taurolidine. Counts of trypan blue-negative cells (FIG. 8A), and total cell number (FIG. 8B), were recorded daily thereafter (with the measurement at Day 1 being made immediately after the 4 hour taurolidine treatment). […] Doubling times were determined under each condition, and expressed as a percentage of the rate of doubling of untreated cells. […]
In these experiments, integrity of cell membranes following taurolidine treatment was assessed by exclusion of trypan blue and by measuring the release of LDH in MM6, K-562, HL-60, and REH cells. […] A parallel aliquot of cells was lysed by three cycles of freeze/thaw and the quantity of LDH released was taken to be 100%. […]
HL-60 cells treated with 50 μl taurolidine. In these samples, LDH present in the culture medium was 8.3±2.3% of that released by completely lysed cells, compared with 2.3±0.8% measured in control cultures. […]

[3] = tested on: HL-60; experiment: LDH release (cell membrane integrity), HL-60
Protocol: (§1) FIGS. 7A and 7B depict cell viability and growth rates for HL-60 cell line following taurolidine treatment, in terms of % trypan blue negative cells and % cell number, respectively. Cells were treated with various concentrations of taurolidine for 4 hours in AIM-V+0.01% BCS. After aliquots were collected for LDH assay, the remainder of the culture was rinsed in HBSS and resuspended in RPMI+10% BCS without taurolidine. Counts of trypan blue-negative cells (FIG. 7A), and total cell number (FIG. 7B), were recorded daily thereafter (with the measurement at Day 1 being made immediately after the 4 hour taurolidine treatment). Conditions were: no treatment (open circles); 25 μg/ml taurolidine (closed circles); 50 μg/ml taurolidine (open squares); 100 μg/ml taurolidine (closed squares); and vehicle alone (closed triangles). Doubling times were determined under each condition, and expressed as a percentage of the rate of doubling of untreated cells. These values are located to the right of the growth curves in (FIG. 7B). Cells were subcultured when they reached a concentration of 6×10^5 cells/ml. Data are mean±SEM of three experiments.
In these experiments, integrity of cell membranes following taurolidine treatment was assessed by exclusion of trypan blue and by measuring the release of LDH in MM6, K-562, HL-60, and REH cells. Since BCS contains significant amounts of LDH, these experiments were conducted on cells cultured in AIM-V+0.01% BCS. Four hour treatment of cells was conducted in AIM-V containing 0.01% BCS in order to allow subsequent LDH assay without interference from BCS (which occurs in when normal culture medium, containing 10% BCS, is used). Thus, MM6 cells (5×10^5 cells/ml) were treated with taurolidine for four hours in AIM-V+0.01% BCS, after which an aliquot of the cell suspension was removed for measurement of LDH release. A parallel aliquot of cells was lysed by three cycles of freeze/thaw and the quantity of LDH released was taken to be 100%. […]
^a LDH was measured immediately after four hour taurolidine treatment.

[4] = tested on: ECV304 (endothelial cells); experiment: growth rate (proliferation) after taurolidine treatment, ECV304; conditions: ECV304, 50 and 100 μg/ml taurolidine
Protocol: as §1, with “10A” for “7A”, “10B” for “7B”, “ECV304” for “HL-60”, “10A),” for “7A),”, “10B),” for “7B),”, “10B). […]” for “7B). Cells were subcultured when they reached a concentration of 6×10^5 cells/ml. Data are mean±SEM of three experiments.”
HL-60 cells treated with 50 μl taurolidine. In these samples, LDH present in the culture medium was 8.3±2.3% of that released by completely lysed cells, compared with 2.3±0.8% measured in control cultures. […] After 4 hour treatment, cells were rinsed and returned to growth medium and monitored for viability and growth over the following 3 days. […]

What does the source list for `O=S1(=O)CCN(CN2CCS(=O)(=O)NC2)CN1` [taurolidine, 4,4'-methylenebis(perhydro-1,2,4-thiadiazin 1,1-dioxide)]?
cell size by microscopy ([1]; MM6, 100 μg/ml taurolidine, 4 h): smaller than control cells; decrease in FSC ([1]; MM6, taurolidine 3 h): approximately 30%; trypan blue staining after treatment, sensitivity [2]: more sensitive; LDH in culture medium, % of that released by completely lysed cells ([3]; HL-60, control 2.3±0.8%, 240 min): 8.3±2.3%; cytotoxicity at 50 µg/mL ([3]; Homo sapiens, HL-60, 50 μg/ml, 4 h, read-out: LDH (% of total)): 5%; cytotoxicity at 100 µg/mL ([3]; Homo sapiens, HL-60, 100 μg/ml, 4 h, read-out: LDH (% of total)): 6%; proliferation after treatment [4]: inhibited proliferation
